For data set [1], the system named is 403 non-mutant human kinases. The note with it: screening concentration 1 µM, S-score with % Control <35.
Experimental: (§2) Briefly, E. coli host derived from the BL21 strain were grown to log-phase and infected with kinase-tagged T7 phage and incubated with shaking at 32°C until lysis. The lysates were centrifuged and filtered to remove cell debris. The remaining kinases were produced in HEK-293 cells and subsequently tagged with DNA for qPCR detection. Streptavidin-coated magnetic beads were treated with biotinylated small molecule ligands to generate affinity resins for kinase assays. The liganded beads were blocked with excess biotin and washed to remove unbound ligand and to reduce non-specific phage binding. […] Selectivity Score (S-score) was a quantitative measure of compound selectivity. […] The binding constants (Kds) were also determined with a standard dose-response curve using the Hill equation and Levenberg-Marquardt algorithm [24, 25].
The next data set concerns the target T1, α1A(h) (Homo sapiens, UniProt P35348).
T1 construct: Eurofins Cerep (France) and Eurofins Discovery (St. Charles, MO)
Put plainly: Cellular and nuclear receptor functional assay, antagonist effect. Format: cell-based. On the procedure:
(§1) The purpose of this study was to provide a first step in preliminary safety assessments by providing early identification of potential off-target interactions for the optimization of safety margins. This study was conducted by Eurofins Cerep (France) and Eurofins Discovery (St. Charles, MO). R-VK4-116 was tested in enzyme and uptake assay with 10 enzyme targets (Figs 4 and 5 in S1 File), and cellular and nuclear receptor functional assays with 24 receptor targets (Figs 5 and 6 in S1 File). Compound enzyme inhibition effect was calculated as a % inhibition of control enzyme activity. The cellular agonist effect was calculated as a % of the control response to a known reference agonist for each target, and the cellular antagonist effect was calculated as a % inhibition of the control reference agonist response for each target.

The next data set deals with T2, H1(h) (Homo sapiens, UniProt P35367).
T2 construct: Eurofins Cerep (France) and Eurofins Discovery (St. Charles, MO)
The description is as above. The data set is classed as cell-based. Here is the method: as §1

The target of a further data set is T3, V1a(h) (Homo sapiens, UniProt P37288).
T3 construct: Eurofins Cerep (France) and Eurofins Discovery (St. Charles, MO)
The description is as above. The note with it: 10 μM. Format: cell-based. On the procedure:
as §1

Another data set addresses T4, 5-HT2B(h) (Homo sapiens, UniProt P41595).
T4 construct: Eurofins Cerep (France) and Eurofins Discovery (St. Charles, MO)
The description is as above. Format: cell-based. Particulars: 10 μM. On the procedure:
as §1

A further data set deals with T5, TNK1 (Homo sapiens, UniProt Q13470).
T5 construct: made in house; host or cells: E. coli BL21-derived host (T7 phage) or HEK-293
T5 sequence (Q13470 1-666): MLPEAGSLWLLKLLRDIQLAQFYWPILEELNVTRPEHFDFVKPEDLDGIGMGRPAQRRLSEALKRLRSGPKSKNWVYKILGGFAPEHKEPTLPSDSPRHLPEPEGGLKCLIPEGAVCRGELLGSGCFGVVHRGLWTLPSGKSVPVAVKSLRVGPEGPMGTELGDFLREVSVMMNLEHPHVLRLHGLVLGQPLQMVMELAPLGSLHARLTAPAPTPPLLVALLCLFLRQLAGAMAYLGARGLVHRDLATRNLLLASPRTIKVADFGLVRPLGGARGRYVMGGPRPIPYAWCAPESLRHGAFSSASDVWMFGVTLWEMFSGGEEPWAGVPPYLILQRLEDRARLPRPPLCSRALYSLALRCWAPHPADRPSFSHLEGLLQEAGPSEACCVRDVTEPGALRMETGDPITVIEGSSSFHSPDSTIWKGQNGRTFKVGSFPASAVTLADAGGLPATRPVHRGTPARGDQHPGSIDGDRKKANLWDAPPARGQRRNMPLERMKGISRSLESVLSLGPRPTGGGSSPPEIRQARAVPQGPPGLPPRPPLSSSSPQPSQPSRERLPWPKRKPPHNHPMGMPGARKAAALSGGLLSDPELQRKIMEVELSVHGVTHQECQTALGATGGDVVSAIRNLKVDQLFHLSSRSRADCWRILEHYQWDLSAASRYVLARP
Put plainly: KINOMEscan binding (% Ctrl, Kd).

Another data set addresses T6, OATP1B3 (Homo sapiens, UniProt Q9NPD5).
T6 construct: expressed in transfected cells; host or cells: MDCK-II cells
T6 sequence (Q9NPD5 1-702): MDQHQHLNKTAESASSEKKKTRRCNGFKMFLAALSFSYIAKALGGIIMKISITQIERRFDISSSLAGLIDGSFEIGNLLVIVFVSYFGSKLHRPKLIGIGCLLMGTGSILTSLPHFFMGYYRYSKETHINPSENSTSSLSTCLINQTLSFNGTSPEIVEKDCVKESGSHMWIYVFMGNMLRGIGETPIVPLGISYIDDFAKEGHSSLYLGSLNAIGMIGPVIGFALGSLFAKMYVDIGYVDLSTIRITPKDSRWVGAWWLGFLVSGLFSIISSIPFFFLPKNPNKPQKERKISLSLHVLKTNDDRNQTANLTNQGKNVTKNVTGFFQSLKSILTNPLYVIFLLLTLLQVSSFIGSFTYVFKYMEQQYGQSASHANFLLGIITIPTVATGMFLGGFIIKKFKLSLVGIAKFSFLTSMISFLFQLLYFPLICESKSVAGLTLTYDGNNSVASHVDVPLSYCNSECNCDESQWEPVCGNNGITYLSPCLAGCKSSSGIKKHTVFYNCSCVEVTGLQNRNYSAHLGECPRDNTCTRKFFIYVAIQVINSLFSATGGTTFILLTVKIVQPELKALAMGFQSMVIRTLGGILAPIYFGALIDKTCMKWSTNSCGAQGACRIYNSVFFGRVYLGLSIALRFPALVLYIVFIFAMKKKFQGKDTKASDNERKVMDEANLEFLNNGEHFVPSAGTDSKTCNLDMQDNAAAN
Put plainly: Transporter mediated assay (substrate/inhibitor), MDCK-II cells. Format: in vitro ADME.

The test system of the next data set is HepG2 cells. The experiment in a line: Mitochondrial toxicity (MT) assay panel. Format: cell-based. On the procedure: The assay results were presented as % cell viability. […] After each incubation, the cells were harvested and lysed to test the MT assay panel. The Zalcitabine (positive control) was also included in this assay (Fig 3 in S1 File). The levels of Mitochondrial Oxidative Phosphorylation (OXPHOS) complex 1 (NADH dehydrogenase; ab178011, lot #GR 3339973–1), complex 3 (CytC reductase; ab124537, lot #GR3276896-3), complex 4 (CytC Oxidase; ab179880, lot #GR3273194-1), and complex 5 (ATP synthase; ab124539, lot #GR3267780-4) in the cell lysates were determined using respective indirect ELISA as per manufacturer’s instructions. The total ATP content of the cell lysates was determined using an ATP assay kit (ab83355, lot #GR3314128-2, Abcam, Cambridge, MA). The Caspase 3 content of the cell lysates was determined using the Caspase-3 assay kit (ab39401, lot #GR3322733-1, Abcam, Cambridge, MA). In addition, the total glutathione content was determined using the total glutathione (GSSG/GSH) assay kit (STA-312, lot #09100263, Oxiselect™, San Diego, CA). Using an Oxiselect™ ROS/RNS assay kit (STA-347, lot #7081343, Cell Biolabs Inc. San Diego, CA), the ROS/RNS content of the cell lysates was determined by fluorescence assay.

Where [2] appears, read: HepG2, 0.1, 1 and 10 μM, 7- and 14-day.

Like-named read-outs stand apart in the source and are kept apart here.

By inhibition is commonly meant the percentage by which the read-out fell short of the control. A lower inhibition goes with a weak effect. As a reminder, the Kd is a measure of binding affinity in units of concentration.

T1 sequence (P35348 whole entry): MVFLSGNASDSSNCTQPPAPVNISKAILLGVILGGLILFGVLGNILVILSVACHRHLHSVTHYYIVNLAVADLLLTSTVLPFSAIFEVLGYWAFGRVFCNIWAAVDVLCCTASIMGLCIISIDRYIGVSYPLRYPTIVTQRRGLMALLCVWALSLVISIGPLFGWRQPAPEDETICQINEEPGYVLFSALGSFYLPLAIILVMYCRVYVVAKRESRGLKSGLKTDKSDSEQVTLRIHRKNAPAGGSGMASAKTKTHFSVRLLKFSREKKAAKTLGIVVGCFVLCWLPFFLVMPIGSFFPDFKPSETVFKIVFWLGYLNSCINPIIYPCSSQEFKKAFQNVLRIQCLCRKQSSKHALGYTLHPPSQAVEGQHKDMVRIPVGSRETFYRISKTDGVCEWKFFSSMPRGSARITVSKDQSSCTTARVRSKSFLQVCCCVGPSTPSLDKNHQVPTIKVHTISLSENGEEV
T4 sequence (P41595 whole entry): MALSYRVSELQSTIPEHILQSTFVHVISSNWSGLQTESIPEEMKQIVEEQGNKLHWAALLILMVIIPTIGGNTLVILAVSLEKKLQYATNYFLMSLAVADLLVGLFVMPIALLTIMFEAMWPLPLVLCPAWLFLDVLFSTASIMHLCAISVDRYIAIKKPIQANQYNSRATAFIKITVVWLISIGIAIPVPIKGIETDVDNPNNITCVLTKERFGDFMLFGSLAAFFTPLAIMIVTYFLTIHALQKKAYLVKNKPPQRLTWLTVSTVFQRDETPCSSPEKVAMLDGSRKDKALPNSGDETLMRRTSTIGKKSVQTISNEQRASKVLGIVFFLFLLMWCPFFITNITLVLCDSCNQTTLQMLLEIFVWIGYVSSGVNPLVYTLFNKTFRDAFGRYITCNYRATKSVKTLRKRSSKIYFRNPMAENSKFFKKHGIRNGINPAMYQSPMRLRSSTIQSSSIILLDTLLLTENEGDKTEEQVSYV
T2 sequence (P35367 whole entry): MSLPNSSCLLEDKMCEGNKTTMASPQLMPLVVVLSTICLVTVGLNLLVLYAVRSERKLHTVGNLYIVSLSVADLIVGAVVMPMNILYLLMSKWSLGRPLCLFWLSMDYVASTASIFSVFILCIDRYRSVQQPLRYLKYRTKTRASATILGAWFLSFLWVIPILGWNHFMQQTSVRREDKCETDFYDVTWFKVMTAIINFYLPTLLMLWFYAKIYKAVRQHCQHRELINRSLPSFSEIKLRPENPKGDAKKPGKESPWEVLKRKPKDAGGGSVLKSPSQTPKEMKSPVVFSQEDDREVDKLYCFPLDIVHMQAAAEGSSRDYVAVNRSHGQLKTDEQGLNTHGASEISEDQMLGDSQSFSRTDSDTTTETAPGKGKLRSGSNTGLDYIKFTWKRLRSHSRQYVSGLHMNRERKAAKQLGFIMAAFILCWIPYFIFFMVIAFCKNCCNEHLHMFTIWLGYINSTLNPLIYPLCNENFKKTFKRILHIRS
T3 sequence (P37288 whole entry): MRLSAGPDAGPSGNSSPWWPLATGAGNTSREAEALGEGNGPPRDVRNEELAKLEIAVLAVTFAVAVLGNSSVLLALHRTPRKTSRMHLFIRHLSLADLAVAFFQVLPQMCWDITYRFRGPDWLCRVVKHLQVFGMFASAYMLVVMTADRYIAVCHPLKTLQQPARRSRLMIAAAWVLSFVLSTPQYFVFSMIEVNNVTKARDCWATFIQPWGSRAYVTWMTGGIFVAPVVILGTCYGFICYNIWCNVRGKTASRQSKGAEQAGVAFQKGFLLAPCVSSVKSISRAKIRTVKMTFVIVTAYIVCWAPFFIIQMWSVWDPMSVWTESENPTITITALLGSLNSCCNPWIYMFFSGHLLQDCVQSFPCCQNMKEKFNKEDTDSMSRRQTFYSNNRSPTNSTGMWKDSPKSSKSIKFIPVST
Experimental for OATP1B3: The MDCK-II cells were treated to express the transporter of interest. The transport of each probe substrate was determined by radiometric detection (Fig 1 in S1 File). […] For the uptake assay, the net transporter-mediated uptake-rate (V) of the substrate by each SLC transporter was calculated as follows: Transporter–mediatedupdaterate(pmol/min/cm^2)=(Cellularaccumulationincellsexpressingthetransporter)−(Meancellularaccumulationincontrolcells)/Surfacearea×incubationtime
Fold of activity and percent inhibition were determined as follows: Foldofactivity=(Meanuptakerate)transporterexpressingcells/(Meanuptakerate)controlcells Percentinhibition=100−100×(Transport‐mediatedupdaterate)withinhibitor/(Transport‐mediatedupdaterate)vehiclecontrol
Experimental for TNK1: as §2

Consider `CCc1cc(Cl)c(OC)c(N2CCN(CC(O)CCNC(=O)c3cc4ccccc4[nH]3)CC2)c1` (centres unmarked) [R-VK4-116, N-(4-(4-(3-chloro-5-ethyl-2-methoxyphenyl)piperazin-1-yl)-3-hydroxybutyl)-1H-indole-2-carboxamide], for which, in data set [1], the Selectivity score is recorded as 0.012. The inhibition at 10 µM was 82.9% against α1A(h); 86.1% at H1(h); 5.29 ± 10.7% against OATP1B3 (human, polarized monolayer of MDCK-II cells expressing OATP1B3, OATP1B3, 0.1% BSA, 10 μM). Besides, the antagonist effect is 27.8% at V1a(h) and 44.6% at 5-HT2B(h). Besides, the Kd at TNK1 (11-point curve 0.001 to 10 μM, read-out: binding constant (Kd)) is greater than 10 µM. Further, the remaining binding at 1 µM is less than 35% at TNK1 (read-out: %Control) and 17% at TNK1 (read-out: Gene (S-score with % control): TNK1). Also, at OATP1B3 (OATP1B3, 1 μM, transporter cells vs control cells), the “fold difference in mean uptake rate (substrate test)” value is reported as less than 2 fold. Also, on OATP1B3 (OATP1B3, 0.1% BSA, 10 μM), the “Inhibition (%)” value is listed as “no statistically significant inhibition”. For the same compound, the “OXPHOS complex 1, 3, 4, and 5 or total ATP levels” value in the data set on HepG2 cells (setting [2]) is “No significant decrease”. Also, the “caspase 3, or total glutathione levels” value in the data set on HepG2 cells (setting [2]) was “no significant increase”. Further, in the data set on HepG2 cells (HepG2, 7-days, all three concentrations (0.1, 1, 10 μM)), the “increase in ROS/RNS levels compared with the solvent control” value is listed as 10–35%.

The values above are taken from publication PMC11649115, “In vitro safety evaluation of dopamine D3R antagonist, R-VK4-116, as a potential medication for the treatment of opioid use disorder” (PLOS ONE, 2024).
